Laboratory results published in PubChem BioAssay (NCI).
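Five compound concentrations were applied to cells in 96-well plates for 48 hours; endpoints were derived by simple linear interpolation of the resulting dose-response curve. TGI: total growth inhibition.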

Experiments:
Test in all cases: NCI anticancer screen, dose series, 48 h
786-0 renal = test system: 786-0 renal
A498 renal = test system: A498 renal
A549 NSCLC = test system: A549 NSCLC
ACHN renal = test system: ACHN renal
BT-549 breast = test system: BT-549 breast
CAKI-1 renal = test system: CAKI-1 renal
CCRF-CEM leukemia = test system: CCRF-CEM leukemia
COLO 205 colon = test system: COLO 205 colon
DU-145 prostate = test system: DU-145 prostate
EKVX NSCLC = test system: EKVX NSCLC
HCC-2998 colon = test system: HCC-2998 colon
HCT-116 colon = test system: HCT-116 colon
HCT-15 colon = test system: HCT-15 colon
HL-60(TB) leukemia = test system: HL-60(TB) leukemia
HOP-62 NSCLC = test system: HOP-62 NSCLC
HS 578T breast = test system: HS 578T breast
HT29 colon = test system: HT29 colon
IGROV1 ovarian = test system: IGROV1 ovarian
K-562 leukemia = test system: K-562 leukemia
KM12 colon = test system: KM12 colon
LOX IMVI melanoma = test system: LOX IMVI melanoma
M14 melanoma = test system: M14 melanoma
MALME-3M melanoma = test system: MALME-3M melanoma
MCF7 breast = test system: MCF7 breast
MDA-MB-231 breast = test system: MDA-MB-231 breast
MDA-MB-435 = test system: MDA-MB-435
MDA-N = test system: MDA-N
MOLT-4 leukemia = test system: MOLT-4 leukemia
NCI-H226 lung = test system: NCI-H226 lung
NCI-H23 lung = test system: NCI-H23 lung
NCI-H460 lung = test system: NCI-H460 lung
NCI-H522 lung = test system: NCI-H522 lung
NCI/ADR-RES ovarian = test system: NCI/ADR-RES ovarian
OVCAR-3 ovarian = test system: OVCAR-3 ovarian
OVCAR-4 ovarian = test system: OVCAR-4 ovarian
OVCAR-5 ovarian = test system: OVCAR-5 ovarian
OVCAR-8 ovarian = test system: OVCAR-8 ovarian
PC-3 prostate = test system: PC-3 prostate
RPMI-8226 leukemia = test system: RPMI-8226 leukemia
RXF 393 renal = test system: RXF 393 renal
SF-268 CNS = test system: SF-268 CNS
SF-295 CNS = test system: SF-295 CNS
SK-MEL-2 melanoma = test system: SK-MEL-2 melanoma
SK-MEL-28 melanoma = test system: SK-MEL-28 melanoma
SK-MEL-5 melanoma = test system: SK-MEL-5 melanoma
SK-OV-3 ovarian = test system: SK-OV-3 ovarian
SN12C renal = test system: SN12C renal
SNB-19 CNS = test system: SNB-19 CNS
SNB-75 CNS = test system: SNB-75 CNS
SR leukemia = test system: SR leukemia
SW-620 colon = test system: SW-620 colon
T-47D breast = test system: T-47D breast
U251 CNS = test system: U251 CNS
UACC-62 melanoma = test system: UACC-62 melanoma
UO-31 renal = test system: UO-31 renal
HOP-92 NSCLC = test system: HOP-92 NSCLC
SF-539 CNS = test system: SF-539 CNS
TK-10 renal = test system: TK-10 renal
UACC-257 melanoma = test system: UACC-257 melanoma

## Nc1ccc(I)cn1
786-0 renal
  TGI: > 100 µM
A498 renal
  TGI: > 100 µM
A549 NSCLC
  TGI: > 100 µM
ACHN renal
  TGI: > 100 µM
BT-549 breast
  TGI: > 100 µM
CAKI-1 renal
  TGI: > 100 µM
CCRF-CEM leukemia
  TGI: > 100 µM
COLO 205 colon
  TGI: > 100 µM
DU-145 prostate
  TGI: > 100 µM
EKVX NSCLC
  TGI: > 100 µM
HCC-2998 colon
  TGI: > 100 µM
HCT-116 colon
  TGI: > 100 µM
HCT-15 colon
  TGI: > 100 µM
HL-60(TB) leukemia
  TGI: > 100 µM
HOP-62 NSCLC
  TGI: > 100 µM
HS 578T breast
  TGI: > 100 µM
HT29 colon
  TGI: > 100 µM
IGROV1 ovarian
  TGI: > 100 µM
K-562 leukemia
  TGI: > 100 µM
KM12 colon
  TGI: > 100 µM
LOX IMVI melanoma
  TGI: > 100 µM
M14 melanoma
  TGI: > 100 µM
MALME-3M melanoma
  TGI: > 100 µM
MCF7 breast
  TGI: > 100 µM
MDA-MB-231 breast
  TGI: > 100 µM
MDA-MB-435
  TGI: > 100 µM
MDA-N
  TGI: > 100 µM
MOLT-4 leukemia
  TGI: > 100 µM
NCI-H226 lung
  TGI: > 100 µM
NCI-H23 lung
  TGI: > 100 µM
NCI-H460 lung
  TGI: > 100 µM
NCI-H522 lung
  TGI: > 100 µM
NCI/ADR-RES ovarian
  TGI: > 100 µM
OVCAR-3 ovarian
  TGI: > 100 µM
OVCAR-4 ovarian
  TGI: > 100 µM
OVCAR-5 ovarian
  TGI: > 100 µM
OVCAR-8 ovarian
  TGI: > 100 µM
PC-3 prostate
  TGI: > 100 µM
RPMI-8226 leukemia
  TGI: > 100 µM
RXF 393 renal
  TGI: > 100 µM
SF-268 CNS
  TGI: > 100 µM
SF-295 CNS
  TGI: > 100 µM
SK-MEL-2 melanoma
  TGI: > 100 µM
SK-MEL-28 melanoma
  TGI: > 100 µM
SK-MEL-5 melanoma
  TGI: > 100 µM
SK-OV-3 ovarian
  TGI: > 100 µM
SN12C renal
  TGI: > 100 µM
SNB-19 CNS
  TGI: > 100 µM
SNB-75 CNS
  TGI: > 100 µM
SR leukemia
  TGI: > 100 µM
SW-620 colon
  TGI: > 100 µM
T-47D breast
  TGI: > 100 µM
U251 CNS
  TGI: > 100 µM
UACC-62 melanoma
  TGI: > 100 µM
UO-31 renal
  TGI: > 100 µM

## CCOC(=O)c1ccc(NC(=O)O/N=C(/Cl)CC)cc1
786-0 renal
  TGI: 13 µM
A498 renal
  TGI: 32.4 µM
A549 NSCLC
  TGI: > 60.8 µM
ACHN renal
  TGI: 22.9 µM
BT-549 breast
  TGI: 59.5 µM
CAKI-1 renal
  TGI: 8.72 µM
CCRF-CEM leukemia
  TGI: 4.54 µM
COLO 205 colon
  TGI: 5.5 µM
DU-145 prostate
  TGI: 33.5 µM
EKVX NSCLC
  TGI: 32.2 µM
HCC-2998 colon
  TGI: 32.6 µM
HCT-116 colon
  TGI: 26.1 µM
HCT-15 colon
  TGI: 28.9 µM
HL-60(TB) leukemia
  TGI: 6.47 µM
HOP-62 NSCLC
  TGI: 38.1 µM
HOP-92 NSCLC
  TGI: 6.77 µM
HS 578T breast
  TGI: 67.5 µM
HT29 colon
  TGI: 44.5 µM
IGROV1 ovarian
  TGI: 41.3 µM
K-562 leukemia
  TGI: 3.6 µM
KM12 colon
  TGI: 36.1 µM
M14 melanoma
  TGI: 25.6 µM
MALME-3M melanoma
  TGI: 9.14 µM
MCF7 breast
  TGI: 30.9 µM
MDA-MB-231 breast
  TGI: 42.5 µM
MDA-MB-435
  TGI: 34.6 µM
MDA-N
  TGI: 32.6 µM
MOLT-4 leukemia
  TGI: 4.51 µM
NCI-H226 lung
  TGI: 40 µM
NCI-H23 lung
  TGI: 39.9 µM
NCI-H460 lung
  TGI: 40.9 µM
NCI-H522 lung
  TGI: 6.81 µM
NCI/ADR-RES ovarian
  TGI: 22 µM
OVCAR-3 ovarian
  TGI: 3.5 µM
OVCAR-4 ovarian
  TGI: 10.1 µM
OVCAR-5 ovarian
  TGI: 34.3 µM
OVCAR-8 ovarian
  TGI: 30.4 µM
PC-3 prostate
  TGI: 33.3 µM
RXF 393 renal
  TGI: 31.1 µM
SF-268 CNS
  TGI: 48 µM
SF-295 CNS
  TGI: 36.4 µM
SF-539 CNS
  TGI: 33.6 µM
SK-MEL-2 melanoma
  TGI: 31.9 µM
SK-MEL-28 melanoma
  TGI: 30.6 µM
SK-MEL-5 melanoma
  TGI: 29.5 µM
SK-OV-3 ovarian
  TGI: 31.7 µM
SN12C renal
  TGI: 39.3 µM
SNB-19 CNS
  TGI: 45.5 µM
SNB-75 CNS
  TGI: 28.2 µM
SR leukemia
  TGI: 11.6 µM
SW-620 colon
  TGI: 3.36 µM
T-47D breast
  TGI: 19.8 µM
TK-10 renal
  TGI: > 34.4 µM
U251 CNS
  TGI: 34.3 µM
UACC-257 melanoma
  TGI: 29.8 µM
UACC-62 melanoma
  TGI: 45.4 µM
UO-31 renal
  TGI: 31.4 µM
